From patent publication US7595327B2, “Beta-sulfonamide hydroxamic acid inhibitors of tace/matrix metalloproteinase” (priority 2005, dated 2009)

Assays:
[1] = target: T1, recombinant human MMP-2 (Homo sapiens, UniProt P08253); assay: In-vitro fluorescence assay of MMP-2 activity; type: biochemical
T1 sequence (P08253 110-660): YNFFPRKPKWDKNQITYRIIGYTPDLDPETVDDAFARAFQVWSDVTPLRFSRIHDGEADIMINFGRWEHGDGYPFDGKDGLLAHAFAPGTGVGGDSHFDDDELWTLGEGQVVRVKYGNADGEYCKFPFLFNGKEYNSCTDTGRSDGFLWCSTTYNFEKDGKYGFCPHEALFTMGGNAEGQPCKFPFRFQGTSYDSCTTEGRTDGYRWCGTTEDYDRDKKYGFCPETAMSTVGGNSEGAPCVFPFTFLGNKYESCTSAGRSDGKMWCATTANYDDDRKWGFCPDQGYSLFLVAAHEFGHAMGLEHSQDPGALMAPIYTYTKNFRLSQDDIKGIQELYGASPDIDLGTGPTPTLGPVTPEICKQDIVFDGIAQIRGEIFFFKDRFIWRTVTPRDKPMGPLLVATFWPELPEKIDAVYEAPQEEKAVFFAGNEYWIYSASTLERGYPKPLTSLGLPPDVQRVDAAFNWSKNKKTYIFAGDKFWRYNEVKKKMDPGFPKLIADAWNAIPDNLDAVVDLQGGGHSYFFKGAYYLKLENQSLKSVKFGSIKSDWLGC

[2] = target: recombinant human MMP-8 (Homo sapiens, UniProt P22894); assay: In-vitro fluorescence assay of MMP-8 activity
Sequence of recombinant human MMP-8 (P22894 101-467): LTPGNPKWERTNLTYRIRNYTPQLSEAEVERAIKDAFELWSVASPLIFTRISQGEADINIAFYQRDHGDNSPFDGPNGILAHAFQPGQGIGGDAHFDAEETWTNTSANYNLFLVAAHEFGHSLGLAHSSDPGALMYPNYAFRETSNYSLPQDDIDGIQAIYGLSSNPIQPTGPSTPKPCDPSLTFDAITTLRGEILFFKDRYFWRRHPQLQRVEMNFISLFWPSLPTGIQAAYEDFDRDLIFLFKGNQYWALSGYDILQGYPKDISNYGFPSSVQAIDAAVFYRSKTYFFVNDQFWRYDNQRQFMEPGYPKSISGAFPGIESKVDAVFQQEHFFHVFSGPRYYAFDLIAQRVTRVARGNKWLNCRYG

[3] = system: LPS-induced TNF-α secretion in human whole blood; assay: Human whole blood assay for LPS-induced TNF-α secretion; type: cell-based; conditions: Homo sapiens, LPS 100 ng/ml, read-out: TNF Secretion HWB IC50
Outline: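 Fresh blood from healthy volunteers pre-incubated 1 h at 37° C with compound (final DMSO <0.2%), then stimulated with 100 ng/ml LPS for 4 h or overnight at 37° C with rotation. Supernatant TNF-α measured by ELISA; percent inhibition and IC50 derived by curve fitting.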

| Compound | IC50 [1] | IC50 [2] | IC50 [3] |
| --- | --- | --- | --- |
| Cc1cc(COc2ccc(S(=O)(=O)N[C@H]3COC[C@H]3C(=O)NO)cc2)c2ccccc2n1 (stereo in doubt) [Example 26, (3S,4R)-4-[4-(2-Methyl-quinolin-4-ylmethoxy)-benzenesulfonylamino]-tetrahydro-furan-3-carboxylic acid hydroxyamide] | > 16.7 µM | > 16.7 µM | 0.2 µM |
| Cc1cc(COc2ccc(S(=O)(=O)N[C@@H]3CN(C(=O)NC(C)(C)C)CC[C@@H]3C(=O)NO)cc2)c2ccccc2n1 [Example 35, 3-[4-(2-Methyl-quinolin4-ylmethoxy)-benzenesulfonylamino]-piperidine-1,4-dicarboxylic acid 1-tert-butylamide 4-hydroxyamide] | > 16.7 µM | > 16.7 µM | 0.8 µM |

More lines, now with the values ahead:

| IC50 [1] | IC50 [2] | IC50 [3] | Compound |
| --- | --- | --- | --- |
| > 10 µM | > 16.7 µM | 0.34 µM | Cc1cc(COc2ccc(S(=O)(=O)N[C@@H]3CN(S(C)(=O)=O)C[C@@H]3C(=O)NO)cc2)c2ccccc2n1 (relative stereo) [Example 17, cis-N-Hydroxy-4-[({4-[(2-methylquinolin-4-yl)methoxy]phenyl}sulfonyl)amino]-1-(methylsulfonyl) pyrrolidine-3-carboxamide] |
| > 10 µM | > 16.7 µM | 0.12 µM | Cc1cc(COc2ccc(S(=O)(=O)N[C@@H]3CN(C=O)C[C@@H]3C(=O)NO)cc2)c2ccccc2n1 (relative stereo) [Example 20, cis-1-Formyl-N-hydroxy-4-[({4-[(2-methylquinolin-4-yl)methoxy]phenyl}sulfonyl)amino]pyrrolidine-3-carboxamide] |
| > 16.7 µM | > 16.7 µM | 0.28 µM | CCNC(=O)N1C[C@H](C(=O)NO)[C@H](NS(=O)(=O)c2ccc(OCc3cc(C)nc4ccccc34)cc2)C1 (relative stereo) [Example 23, cis-1-Ethyl-N-hydroxy-4-[({4-[(2-methylquinolin-4-yl)methoxy]phenyl}sulfonyl)amino]pyrrolidine-1,3-dicarboxamide] |
| > 10 µM | > 16.7 µM | 0.25 µM | Cc1cc(COc2ccc(S(=O)(=O)N[C@@H]3CCC[C@@H]3C(=O)NO)cc2)c2ccccc2n1 [Example 13, (1S,2R)-N-Hydroxy-2-[({4-[(2-methylquinolin-4-yl)methoxy]phenyl}sulfonyl)amino]cyclopentanecarboxamide] |
